Key:
Test in all cases: KinomeScan profiling
Type in all cases: binding
[1] = biological target: PRKCD (Homo sapiens, UniProt Q05655); conditions: read-out: % control
Method in brief: (§1)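 1 μM cpd in DMSO; 468-kinase panel; readout RLU. % ctrl = (cpd − pos ctrl)/(neg ctrl − pos ctrl) ×100. Pos ctrl = 0%, DMSO = 100%. Hit cut-off <35%.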

[2] = biological target: T1, ICK (Homo sapiens, UniProt Q9UPZ9); conditions: read-out: % control
T1 sequence (Q9UPZ9 1-632): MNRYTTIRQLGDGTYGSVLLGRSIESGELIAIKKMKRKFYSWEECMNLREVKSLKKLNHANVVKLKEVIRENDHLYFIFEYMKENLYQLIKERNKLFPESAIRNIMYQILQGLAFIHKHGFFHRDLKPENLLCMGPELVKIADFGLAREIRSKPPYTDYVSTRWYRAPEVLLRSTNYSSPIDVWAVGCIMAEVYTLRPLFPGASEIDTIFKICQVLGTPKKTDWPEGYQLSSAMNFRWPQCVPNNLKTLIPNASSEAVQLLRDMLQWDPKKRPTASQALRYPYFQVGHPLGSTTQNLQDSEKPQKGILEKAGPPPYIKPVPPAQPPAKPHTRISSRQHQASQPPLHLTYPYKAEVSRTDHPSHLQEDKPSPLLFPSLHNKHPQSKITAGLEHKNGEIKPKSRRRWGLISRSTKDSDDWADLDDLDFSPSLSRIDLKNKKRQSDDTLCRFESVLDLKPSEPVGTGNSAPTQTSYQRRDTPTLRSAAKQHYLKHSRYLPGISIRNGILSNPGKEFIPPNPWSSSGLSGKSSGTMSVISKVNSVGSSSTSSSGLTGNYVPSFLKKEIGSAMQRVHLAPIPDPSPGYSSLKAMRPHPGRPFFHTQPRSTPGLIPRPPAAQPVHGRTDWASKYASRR
Method in brief: as §1

[3] = biological target: MAPKAPK2 (Homo sapiens, UniProt P49137); conditions: MAPKAPK2, 1 μM; read-out: % control
Method in brief: as §1

[4] = biological target: T2, FLT3(K663Q) (Homo sapiens, UniProt P36888, K663Q); conditions: read-out: % control
T2 sequence (P36888 27-993 K663Q): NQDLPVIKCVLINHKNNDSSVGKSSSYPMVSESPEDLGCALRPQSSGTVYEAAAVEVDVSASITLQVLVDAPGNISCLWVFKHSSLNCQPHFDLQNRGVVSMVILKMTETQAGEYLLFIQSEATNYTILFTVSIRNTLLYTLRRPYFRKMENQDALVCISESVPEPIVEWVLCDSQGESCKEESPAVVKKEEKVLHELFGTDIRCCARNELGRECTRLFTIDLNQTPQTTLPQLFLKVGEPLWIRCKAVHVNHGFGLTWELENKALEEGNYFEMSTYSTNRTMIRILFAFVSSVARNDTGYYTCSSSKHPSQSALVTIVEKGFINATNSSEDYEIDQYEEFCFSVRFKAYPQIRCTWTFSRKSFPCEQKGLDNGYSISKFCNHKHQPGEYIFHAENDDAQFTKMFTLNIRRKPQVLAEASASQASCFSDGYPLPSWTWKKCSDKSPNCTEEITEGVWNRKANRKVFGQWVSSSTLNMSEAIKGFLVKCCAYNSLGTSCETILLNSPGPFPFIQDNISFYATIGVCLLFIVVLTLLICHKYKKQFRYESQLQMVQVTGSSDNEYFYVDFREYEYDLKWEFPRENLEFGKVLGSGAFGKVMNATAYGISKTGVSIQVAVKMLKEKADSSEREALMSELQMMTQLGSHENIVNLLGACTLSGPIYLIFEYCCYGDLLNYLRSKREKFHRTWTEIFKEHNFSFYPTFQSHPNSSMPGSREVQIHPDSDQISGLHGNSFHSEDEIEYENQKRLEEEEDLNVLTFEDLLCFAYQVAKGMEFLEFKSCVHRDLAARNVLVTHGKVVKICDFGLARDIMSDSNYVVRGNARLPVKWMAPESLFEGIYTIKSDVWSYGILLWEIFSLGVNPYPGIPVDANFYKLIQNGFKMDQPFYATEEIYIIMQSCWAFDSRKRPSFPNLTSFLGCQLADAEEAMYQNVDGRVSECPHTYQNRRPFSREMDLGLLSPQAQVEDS
Method in brief: as §1

[5] = biological target: T3, EPHB6 (Homo sapiens, UniProt O15197); conditions: EPHB6, 1 μM; read-out: % control
T3 sequence (O15197 32-1021): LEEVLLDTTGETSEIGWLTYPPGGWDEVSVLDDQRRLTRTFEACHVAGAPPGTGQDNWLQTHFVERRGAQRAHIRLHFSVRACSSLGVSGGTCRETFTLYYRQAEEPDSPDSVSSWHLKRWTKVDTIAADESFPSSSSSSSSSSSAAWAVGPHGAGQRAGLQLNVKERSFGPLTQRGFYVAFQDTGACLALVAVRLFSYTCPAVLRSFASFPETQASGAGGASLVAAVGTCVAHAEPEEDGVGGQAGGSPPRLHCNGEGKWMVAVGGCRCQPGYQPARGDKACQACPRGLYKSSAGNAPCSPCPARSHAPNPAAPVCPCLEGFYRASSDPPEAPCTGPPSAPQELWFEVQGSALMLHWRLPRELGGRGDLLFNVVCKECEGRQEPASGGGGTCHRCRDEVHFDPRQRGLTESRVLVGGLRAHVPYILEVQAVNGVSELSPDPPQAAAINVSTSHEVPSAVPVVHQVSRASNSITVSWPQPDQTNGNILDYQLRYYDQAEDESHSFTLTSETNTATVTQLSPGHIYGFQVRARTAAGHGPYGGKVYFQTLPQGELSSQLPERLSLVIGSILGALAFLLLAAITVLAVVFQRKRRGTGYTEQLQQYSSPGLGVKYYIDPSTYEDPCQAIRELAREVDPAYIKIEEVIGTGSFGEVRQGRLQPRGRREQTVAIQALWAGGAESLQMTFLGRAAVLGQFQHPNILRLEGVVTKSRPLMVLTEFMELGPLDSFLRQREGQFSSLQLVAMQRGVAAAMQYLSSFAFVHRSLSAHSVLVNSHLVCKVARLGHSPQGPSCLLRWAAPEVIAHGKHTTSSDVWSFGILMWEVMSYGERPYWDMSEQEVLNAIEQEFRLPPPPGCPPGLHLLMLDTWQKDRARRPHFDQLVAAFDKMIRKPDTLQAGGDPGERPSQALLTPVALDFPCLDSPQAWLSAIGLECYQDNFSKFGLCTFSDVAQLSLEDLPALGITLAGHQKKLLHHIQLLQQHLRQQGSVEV
Method in brief: as §1

Sequence of PRKCD (Q05655 whole entry): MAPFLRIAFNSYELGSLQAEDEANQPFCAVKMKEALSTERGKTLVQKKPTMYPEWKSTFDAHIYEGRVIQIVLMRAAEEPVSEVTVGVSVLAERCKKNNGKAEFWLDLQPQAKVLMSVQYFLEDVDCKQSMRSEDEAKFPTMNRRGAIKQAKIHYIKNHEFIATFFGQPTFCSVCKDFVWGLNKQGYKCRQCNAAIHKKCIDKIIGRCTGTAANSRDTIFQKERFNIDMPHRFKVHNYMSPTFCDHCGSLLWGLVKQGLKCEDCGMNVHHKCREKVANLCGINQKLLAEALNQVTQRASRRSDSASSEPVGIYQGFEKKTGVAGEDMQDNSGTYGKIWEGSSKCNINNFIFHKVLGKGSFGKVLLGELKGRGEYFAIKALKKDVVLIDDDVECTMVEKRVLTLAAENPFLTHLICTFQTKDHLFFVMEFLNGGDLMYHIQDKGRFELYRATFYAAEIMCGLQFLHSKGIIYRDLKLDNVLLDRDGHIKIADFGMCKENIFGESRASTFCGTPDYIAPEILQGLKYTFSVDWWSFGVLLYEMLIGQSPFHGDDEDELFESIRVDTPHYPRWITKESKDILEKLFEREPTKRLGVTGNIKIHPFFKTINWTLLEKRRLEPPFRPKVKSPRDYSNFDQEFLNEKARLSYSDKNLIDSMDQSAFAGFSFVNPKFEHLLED
Sequence of MAPKAPK2 (P49137 whole entry): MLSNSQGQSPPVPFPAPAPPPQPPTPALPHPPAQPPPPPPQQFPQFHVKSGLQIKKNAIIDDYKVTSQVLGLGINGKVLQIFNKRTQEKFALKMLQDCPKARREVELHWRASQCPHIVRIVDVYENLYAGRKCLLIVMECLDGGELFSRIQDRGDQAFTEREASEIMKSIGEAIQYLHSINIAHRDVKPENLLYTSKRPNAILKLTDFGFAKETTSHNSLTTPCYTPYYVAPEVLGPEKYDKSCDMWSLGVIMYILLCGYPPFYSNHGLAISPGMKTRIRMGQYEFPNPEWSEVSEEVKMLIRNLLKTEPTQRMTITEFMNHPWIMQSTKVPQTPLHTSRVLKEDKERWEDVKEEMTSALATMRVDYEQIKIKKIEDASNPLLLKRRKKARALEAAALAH

| SMILES | remaining binding at 1 µM [1] [%] | remaining binding at 1 µM [2] [%] | remaining binding at 1 µM [3] [%] | remaining binding at 1 µM [4] [%] | remaining binding at 1 µM [5] [%] |
| --- | --- | --- | --- | --- | --- |
| CNc1c(-c2cnn([C@H]3CCN(C(C)=O)C[C@@H]3F)c2)cnc2[nH]cc(Cl)c12 [Compound 77, 1-((3S,4S)-4-(4-(3-chloro-4-(methylamino)-1H-pyrrolo[2,3-b]pyridin-5-yl)-1H-pyrazol-1-yl)-3-fluoropiperidin-1-yl)ethan-1-one] | 100 | 35 | 100 | 15 | 55 |
| CNc1c(-c2ccc(C(=O)N3CCC(N4CCOCC4)CC3)cc2)cnc2[nH]cc(Cl)c12 [Compound 96, (4-(3-chloro-4-(methylamino)-1H-pyrrolo[2,3-b]pyridin-5-yl)phenyl)(4-morpholinopiperidin-1-yl)methanone] | 94 | 35 | 100 | 15 | 99 |
| O=C(c1ccc(-c2cnc3[nH]cc(Cl)c3c2NC2CCCC2)cc1)N1CCC(N2CCOCC2)CC1 [Compound 101, (4-(3-chloro-4-(cyclopentylamino)-1H-pyrrolo[2,3-b]pyridin-5-yl)phenyl)(4-morpholinopiperidin-1-yl)methanone] | 88 | 100 | 51 | 28 | 100 |
